This note sets out measurements from patent US8492559B2, “Substituted indole compounds” (Gruenenthal GmbH, priority 2009, dated 2013).

SMILES strings stand for the structures.

The target of this assay is T1, B1R receptor of the rat (rB1R) (Rattus norvegicus, UniProt P97583).
T1 construct: expressed in transfected cells; host or cells: CHO K1 cells
T1 sequence (P97583 1-337): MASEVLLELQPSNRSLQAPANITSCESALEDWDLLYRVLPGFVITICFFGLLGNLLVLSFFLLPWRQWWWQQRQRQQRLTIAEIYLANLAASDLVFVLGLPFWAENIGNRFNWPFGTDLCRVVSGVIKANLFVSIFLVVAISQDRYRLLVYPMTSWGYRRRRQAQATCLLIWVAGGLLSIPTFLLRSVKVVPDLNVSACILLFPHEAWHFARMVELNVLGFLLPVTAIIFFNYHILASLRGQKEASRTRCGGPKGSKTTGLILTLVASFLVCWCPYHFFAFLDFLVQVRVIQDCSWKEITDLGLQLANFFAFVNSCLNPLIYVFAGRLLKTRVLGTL
Description: Functional investigation on the bradykinin 1 receptor (B1R), FLIPR Ca2+ assay, rB1R cells. The class given is cell-based. Conditions: CHO-K1, 10 μM test substance; CHO K1 cells with rat B1R; agonist Des-Arg9 bradykinin; % of maximum achievable inhibition; read-out: B1R antagonism, rat [10 μM] % inhibition. A digest of the protocol:
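Ca2+ influx is measured as peak Fluo-4 fluorescence in a FLIPR protocol with two substance additions, following Lys-Des-[MUT] bradykinin (0.5 nM) or Des-[MUT] bradykinin (100 nM) challenge. Varying antagonist concentrations give % inhibition relative to maximum achievable and an IC50. Determinations in duplicate or triplicate, repeated independently (N>=2).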
With `O=C(CCn1ccc2ccc(N3Cc4cccc(Cl)c4C3=O)cc21)N1CCC(Oc2ccncc2)CC1` [G_CC-68, 7-Chloro-2-[1-[3-oxo-3-(4-pyridin-4-yloxy-piperidin-1-yl)-propyl]-1H-indol-6-yl]-2,3-dihydro-isoindol-1-one], the inhibition at 10 µM is 69%.
On to `O=C(CCn1ccc2ccc(N3Cc4cccc(Cl)c4C3=O)cc21)N1CCC(O)(c2cccnc2)CC1` [G_CC-69, 7-Chloro-2-[1-[3-(4-hydroxy-4-pyridin-3-yl-piperidin-1-yl)-3-oxo-propyl]-1H-indol-6-yl]-2,3-dihydro-isoindol-1-one], for which the inhibition at 10 µM came out at 65%.
For `Cc1cc(S(=O)(=O)Nc2cccc3ccn(CCC(=O)NCCC4CCN(c5ccncc5)CC4)c23)c(C)cc1Cl` [G_CC-70, 3-[7-[[(4-Chloro-2,5-dimethyl-phenyl)sulfonyl]amino]-1H-indol-1-yl]-N-[2-(1-pyridin-4-yl-piperidin-4-yl)-ethyl]-propionamide], the inhibition at 10 µM turned out to be 100%.
As to `Cc1cc(S(=O)(=O)Nc2ccc3ccn(CCC(=O)NCCC4CCN(c5ccncc5)CC4)c3c2)c(C)cc1Cl` [G_CC-71, 3-[6-[[(4-Chloro-2,5-dimethyl-phenyl)sulfonyl]amino]-1H-indol-1-yl]-N-[2-(1-pyridin-4-yl-piperidin-4-yl)-ethyl]-propionamide], the inhibition at 10 µM stood at 54%.
`O=C(CCn1ccc2ccc(N3Cc4cccc(Cl)c4C3=O)cc21)NCCC1CCN(c2ccncc2)CC1` [G_CC-72, 3-[6-(4-Chloro-3-oxo-1,2-dihydro-isoindol-2-yl)-1H-indol-1-yl]-N-[2-(1-pyridin-4-yl-piperidin-4-yl)-ethyl]-propionamide]: the inhibition at 10 µM came out at 71%.
In the case of `Cc1cc(S(=O)(=O)Nc2cccc3ccn(CCC(=O)NCCN4CCC(c5cccs5)(N(C)C)CC4)c23)c(C)cc1Cl` [G_CC-73, 3-[7-[[(4-Chloro-2,5-dimethyl-phenyl)sulfonyl]amino]-1H-indol-1-yl]-N-[2-(4-dimethylamino-4-thiophen-2-yl-piperidin-1-yl)-ethyl]-propionamide], the inhibition at 10 µM was found to be 55%.
As to `Cc1cc(S(=O)(=O)Nc2ccc3ccn(CCC(=O)NCCN4CCC(c5cccs5)(N(C)C)CC4)c3c2)c(C)cc1Cl` [G_CC-74, 3-[6-[[(4-Chloro-2,5-dimethyl-phenyl)sulfonyl]amino]-1H-indol-1-yl]-N-[2-(4-dimethylamino-4-thiophen-2-yl-piperidin-1-yl)-ethyl]-propionamide], the inhibition at 10 µM was 51%.
In the case of `COc1cc(C)c(S(=O)(=O)Nc2cccc3ccn(CC(=O)N(C)CCC4CCC(c5ccccc5)(N(C)C)CC4)c23)c(C)c1` (stereo not drawn) [G_CC-77, N-[2-(4-Dimethylamino-4-phenyl-cyclohexyl)-ethyl]-2-[7-[[(4-methoxy-2,6-dimethyl-phenyl)sulfonyl]amino]-1H-indol-1-yl]-N-methyl-acetamide], the inhibition at 10 µM was 104%.
With `COc1cc(C)c(S(=O)(=O)Nc2ccc3ccn(CCC(=O)N(C)CCN4CCC(c5cccc(F)c5)(N5CCN(C)CC5)CC4)c3c2)c(C)c1` [G_CC-81, N-[2-[4-(3-Fluorophenyl)-4-(4-methyl-piperazin-1-yl)-piperidin-1-yl]-ethyl]-3-[6-[[(4-methoxy-2,6-dimethyl-phenyl)sulfonyl]amino]-1H-indol-1-yl]-N-methyl-propionamide], the inhibition at 10 µM was found to be 103%.
With `COc1cc(C)c(S(=O)(=O)Nc2cccc3ccn(CC(=O)N4CCC(c5cccc(F)c5)(N5CCN(C)CC5)CC4)c23)c(C)c1` [G_CC-84, N-[1-[2-[4-(3-Fluorophenyl)-4-(4-methyl-piperazin-1-yl)-piperidin-1-yl]-2-oxo-ethyl]-1H-indol-7-yl]-4-methoxy-2,6-dimethyl-benzenesulfonic acid amide], the inhibition at 10 µM came out at 102%.
With `COc1cc(C)c(S(=O)(=O)Nc2cccc3ccn(CC(=O)N4CCC(Oc5ccncc5)CC4)c23)c(C)c1` [G_CC-92, 4-Methoxy-2,6-dimethyl-N-[1-[2-oxo-2-(4-pyridin-4-yloxy-piperidin-1-yl)-ethyl]-1H-indol-7-yl]-benzenesulfonic acid amide], the inhibition at 10 µM was 98%.
On to `COc1cc(C)c(S(=O)(=O)Nc2ccc3ccn(CC(=O)N(C)CCC4CCC(c5ccccc5)(N(C)C)CC4)c3c2)c(C)c1` (stereo not drawn) [G_CC-95, N-[2-(4-Dimethylamino-4-phenyl-cyclohexyl)-ethyl]-2-[6-[[(4-methoxy-2,6-dimethyl-phenyl)sulfonyl]amino]-1H-indol-1-yl]-N-methyl-acetamide], for which the inhibition at 10 µM is 96%.
For `COc1cc(C)c(S(=O)(=O)Nc2ccc3ccn(CC(=O)N(C)CCN4CCC(c5cccc(F)c5)(N5CCN(C)CC5)CC4)c3c2)c(C)c1` [G_CC-99, N-[2-[4-(3-Fluorophenyl)-4-(4-methyl-piperazin-1-yl)-piperidin-1-yl]-ethyl]-2-[6-[[(4-methoxy-2,6-dimethyl-phenyl)sulfonyl]amino]-1H-indol-1-yl]-N-methyl-acetamide], the inhibition at 10 µM stood at 93%.
On to `COc1cc(C)c(S(=O)(=O)Nc2cccc3ccn(CC(=O)N(C)CCN4CCC(c5cccc(F)c5)(N5CCN(C)CC5)CC4)c23)c(C)c1` [G_CC-102, N-[2-[4-(3-Fluorophenyl)-4-(4-methyl-piperazin-1-yl)-piperidin-1-yl]-ethyl]-2-[7-[[(4-methoxy-2,6-dimethyl-phenyl)sulfonyl]amino]-1H-indol-1-yl]-N-methyl-acetamide], for which the inhibition at 10 µM was 89%.
As to `O=C(Cn1ccc2ccc(N3Cc4cccc(Cl)c4C3=O)cc21)NCCC1CCN(c2ccncc2)CC1` [G_CC-103, 2-[6-(4-Chloro-3-oxo-1,2-dihydro-isoindol-2-yl)-1H-indol-1-yl]-N-[2-(1-pyridin-4-yl-piperidin-4-yl)-ethyl]-acetamide], the inhibition at 10 µM was 88%.
For the molecule `O=C(CCn1ccc2cccc(N3Cc4cccc(Cl)c4C3=O)c21)N1CCC2(CC1)CCN(c1ccncc1)CC2` [G_CC-106, 7-Chloro-2-[1-[3-oxo-3-(3-pyridin-4-yl-3,9-diazaspiro[5.5]undecan-9-yl)-propyl]-1H-indol-7-yl]-2,3-dihydro-isoindol-1-one], the inhibition at 10 µM was 86%.
Turning to `COc1cc(C)c(S(=O)(=O)Nc2ccc3ccn(CC(=O)N4CCC(CNC(=O)c5ccncc5)(N5CCN(C)CC5)CC4)c3c2)c(C)c1` [G_CC-108, N-[[1-[2-[6-[[(4-Methoxy-2,6-dimethyl-phenyl)sulfonyl]amino]-1H-indol-1-yl]-acetyl]-4-(4-methyl-piperazin-1-yl)-piperidin-4-yl]-methyl]-pyridine-4-carboxylic acid amide], the inhibition at 10 µM is 84%.
Next, `O=C(Cn1ccc2ccc(N3Cc4cccc(Cl)c4C3=O)cc21)NCC1CCN(c2ccncc2)CC1` [G_CC-111, 2-[6-(4-Chloro-3-oxo-1,2-dihydro-isoindol-2-yl)-1H-indol-1-yl]-N-[(1-pyridin-4-yl-piperidin-4-yl)-methyl]-acetamide]: 81%; `CN1CCN(C2(c3cccc(F)c3)CCN(CCN(C)C(=O)Cn3ccc4ccc(N5Cc6cccc(Cl)c6C5=O)cc43)CC2)CC1` [G_CC-113, 2-[6-(4-Chloro-3-oxo-1,2-dihydro-isoindol-2-yl)-1H-indol-1-yl]-N-[2-[4-(3-fluorophenyl)-4-(4-methyl-piperazin-1-yl)-piperidin-1-yl]-ethyl]-N-methyl-acetamide]: 78%.
On to `COc1cc(C)c(S(=O)(=O)Nc2ccc3ccn(CCC(=O)N(C)CCCN4CCN(c5ccncc5)CC4)c3c2)c(C)c1` [G_CC-116, 3-[6-[[(4-Methoxy-2,6-dimethyl-phenyl)sulfonyl]amino]-1H-indol-1-yl]-N-methyl-N-[3-(4-pyridin-4-yl-piperazin-1-yl)-propyl]-propionamide], for which the inhibition at 10 µM worked out at 74%.
Next, `COc1cc(C)c(S(=O)(=O)Nc2ccc3ccn(CCC(=O)N(C)CCC4CCC(c5ccccc5)(N(C)C)CC4)c3c2)c(C)c1` (stereo not drawn) [G_CC-117, N-[2-(4-Dimethylamino-4-phenyl-cyclohexyl)-ethyl]-3-[6-[[(4-methoxy-2,6-dimethyl-phenyl)sulfonyl]amino]-1H-indol-1-yl]-N-methyl-propionamide]: 74%; `CN(CCCN1CCN(c2ccncc2)CC1)C(=O)CCn1ccc2ccc(N3Cc4cccc(Cl)c4C3=O)cc21` [G_CC-119, 3-[6-(4-Chloro-3-oxo-1,2-dihydro-isoindol-2-yl)-1H-indol-1-yl]-N-methyl-N-[3-(4-pyridin-4-yl-piperazin-1-yl)-propyl]-propionamide]: 72%.
`COc1cc(C)c(S(=O)(=O)Nc2ccc3ccn(CC(=O)N4CCC(CCN5CCCC5)CC4)c3c2)c(C)c1` [G_CC-120, 4-Methoxy-2,6-dimethyl-N-[1-[2-oxo-2-[4-(2-pyrrolidin-1-yl-ethyl)-piperidin-1-yl]-ethyl]-1H-indol-6-yl]-benzenesulfonic acid amide]: the inhibition at 10 µM was determined as 72%.
For `O=C(CCn1ccc2cccc(N3Cc4cccc(Cl)c4C3=O)c21)NCC1CCN(c2ccncc2)CC1` [G_CC-123, 3-[7-(4-Chloro-3-oxo-1,2-dihydro-isoindol-2-yl)-1H-indol-1-yl]-N-[(1-pyridin-4-yl-piperidin-4-yl)-methyl]-propionamide], the inhibition at 10 µM turned out to be 67%.
